Test results taken from publication PMC8270262 (Molecules, 2021).
Entries after “also recorded” stand apart in the source; their conditions may differ.

Tests used:
[1] = target: SARS-CoV-2 PL^pro (Severe acute respiratory syndrome coronavirus 2, UniProt P0DTD1); experiment: biochemical
[2] = test system: DENV protease; details: enzyme concentration 1 μM; cited from earlier work
[3] = test system: WNF protease; details: cited from earlier work

| Molecule | Effect of reducing agent on PLpro inhibition (in words) [1] | IC50 [1] | IC50 [2] | IC50 [3] |
| --- | --- | --- | --- | --- |
| Sc1ncc2[nH]cnc2n1 [2-MP, 2-mercaptopurine] | diminished; also recorded: significantly increases the IC50 values | 820 ± 600 nM | – | – |
| Sc1ncnc2nc[nH]c12 [6-MP, 6-mercaptopurine] | – | ~66000 nM | – | – |
| CCN(CC)C(=S)SSC(=S)N(CC)CC [Antabuse] | significantly increases the IC50 values | – | – | – |
| Aprotinin | – | – | 65 nM | 20 nM |
